Experimental data reported in US20190225650A1, “PEPTIDOMIMETIC MACROCYCLES AND USE THEREOF IN REGULATING HIF1ALPHA” (AILERON THERAPEUTICS, INC., priority 2013, published 2019).
Bridge positions count the residues as written; N and C are the ends. Square brackets hold non-standard residues; d marks the D form. Peptide text beside a SMILES is read from it. R8 = C=CCCCCCC[C@@](C)(N)C(=O)O; S5 = C=CCCC[C@](C)(N)C(=O)O; Nle = CCCC[C@H](N)C(=O)O

Tests used:
[1] = test system: HRE-bla ME-180 cells; experiment: Reporter gene assay (HRE-bla ME-180 HIF reporter, GeneBLAzer); assay type: cell-based, human; conditions: for EC50: 24 hour normoxia
Summary of the method: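 A FRET β-lactamase readout of HIF transcription was used. After compound treatment in 0.3% DMSO/media under normoxic conditions, 20 μl of 6× LiveBLAzer-FRET B/G (CCF4-AM) substrate was added. Plates sat 3 hr at room temperature in the dark and were read at 409 Ex/460Em and 409Ex/530Em on a Synergy 2. Inhibition was compared against DMSO vehicle controls, with chetomin as positive control.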

[2] = test system: HRE-bla ME-180 cells; experiment: Cell proliferation assay (viability, MTT, 1% FBS); assay type: cell-based, human
Summary of the method: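 ME-180 cells (2×10^4/well) in Opti-MEM with 1% FBS were pretreated 16 h under normoxia (21% O2), vehicle 0.5% DMSO final. Incubation then continued under normoxia or hypoxia (1% O2); viable cells quantified by MTT-type CellTiter 96 assay.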

[3] = target: T1, flag-tagged HIF1α (AA 786-826) / His6-tagged p300 (AA 323-423) complex (Homo sapiens, UniProt Q09472); experiment: HIF1α p300 displacement assay (TR FRET, +CHAPS); assay type: binding; conditions: read-out: IC50 (nM) (HIF1α_p300 Displacement + CHAPS)
T1 construct: His6-tagged p300 (AA 323-423); made in house; host or cells: E. coli (pETDuet vector)
Summary of the method: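 The co-expressed flag-HIF1α (786-826)/His6-p300 (323-423) complex, purified from E. coli with 0.1 mM ZnSO4, was used at 300 nM final with competitor peptides for 1 h at room temperature. Buffer was 150 mM NaCl, 20 mM HEPES pH 7.4, 7.5 mM CHAPS and 1 mM DTT. Anti-Flag-K (0.5 μM) and anti-His-D2 (4 nM) were then added for 2 h, and IC50s were fitted from the TR-FRET ratio.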

SMILES | 18 h Avg % max inhibition at top conc (HIF Rptr-24 hrs normoxia) (μM) [1] | EC50 [1] [µM] | Viability 1% FBS AVG (MTT V3-24 hr Normoxia) (μM) [2] | IC50 [3] [nM]
CCCC[C@H](NC(=O)[C@H](CCC(=O)O)NC(=O)[C@@H](NC(=O)[C@@H](NC(=O)[C@H](CC(C)C)NC(=O)[C@]1(C)CCCC=CCCC[C@](C)(NC(=O)[C@H](CCC(=O)O)NC(=O)[C@H](CC(=O)O)NC(=O)[C@@H](NC(=O)[C@H](Cc2ccccc2)NC(C)=O)[C@@H](C)CC)C(=O)N[C@@H]([C@@H](C)O)C(=O)N[C@@H](CC(C)C)C(=O)N[C@@H](CCCC)C(=O)N1)C(C)C)[C@@H](C)CC)C(=O)N[C@@H](C)C(=O)N[C@@H](CC(C)C)C(N)=O [SP-139] (Ac-FIDE[S5]TL[Nle][S5]LVIE[Nle]AL-NH2; staple 5-9) | +++ (≤25 but <50: +++) | > 30 | ++ (≤5 but <15: ++) | 400 to 700
CCCC[C@@H]1NC(=O)[C@H](CC(C)C)NC(=O)[C@](C)(NC(=O)[C@H](CCC(=O)O)NC(=O)[C@H](CCC(=O)O)NC(=O)[C@H](CC(=O)O)NC(=O)[C@@H](NC(=O)[C@H](Cc2ccccc2)NC(C)=O)[C@@H](C)CC)CCCCCCC=CCCC[C@@](C)(C(=O)N[C@@H](CCCC)C(=O)N[C@@H](C)C(=O)N[C@@H](CC(C)C)C(N)=O)NC(=O)[C@H]([C@@H](C)CC)NC(=O)[C@H](C(C)C)NC(=O)[C@H](CC(C)C)NC(=O)[C@H](CO)NC1=O [SP-199] (Ac-FIDEE[R8]L[Nle]SLVI[S5][Nle]AL-NH2; staple 6-13) | + (<10: +) | > 30 | ++++ (≥30: ++++) | 200 to 400
CC[C@H](C)[C@H](NC(=O)[C@H](CC(N)=O)NC(=O)[C@@H](NC(=O)[C@H](CCC(N)=O)NC(=O)[C@H](CC(=O)O)NC(=O)[C@H](CC(C)C)NC(=O)[C@H](C)NC(=O)[C@H](CCCNC(=N)N)NC(=O)[C@H](CC(C)C)NC(=O)[C@H](CC(C)C)NC(=O)[C@H](CCC(=O)O)NC(=O)[C@H](CCC(=O)O)NC(=O)CNC(=O)[C@H](CCC(N)=O)NC(=O)[C@H](CC(C)C)NC(=O)[C@H](CC(C)C)NC(C)=O)C(C)C)C(=O)N[C@@H](CC(=O)O)C(=O)N[C@@H](CCC(=O)O)C(=O)N[C@]1(C)CCCCCCC=CCCC[C@@](C)(C(=O)N[C@@H](CCC(=O)O)C(=O)N[C@@H](CCSC)C(N)=O)NC(=O)[C@H](C(C)C)NC(=O)[C@H](CC(C)C)NC(=O)[C@H](CO)NC(=O)[C@H](CCSC)NC(=O)[C@H](CC(C)C)NC(=O)[C@H](C(C)C)NC1=O [SP-320] (Ac-LLQGEELLRALDQVNIDE[R8]VLMSLV[S5]EM-NH2; staple 19-26) | + (<10: +) | > 30 | ++++ (≥30: ++++) | 200 to 400
CCCC[C@H](NC(=O)[C@H](CCC(=O)O)NC(=O)[C@@H](NC(=O)[C@@H](NC(=O)[C@H](CC(C)C)NC(=O)[C@]1(C)CCCC=CCCC[C@](C)(NC(=O)[C@H](CCC(=O)O)NC(=O)[C@H](CC(=O)O)NC(=O)[C@H](CO)NC(=O)[C@H](Cc2ccccc2)NC(C)=O)C(=O)N[C@@H](C(C)C)C(=O)N[C@@H](CC(C)C)C(=O)N[C@@H](CCCC)C(=O)N1)C(C)C)[C@@H](C)CC)C(=O)N[C@@H](C)C(=O)N[C@@H](CC(C)C)C(N)=O [SP-154] (Ac-FSDE[S5]VL[Nle][S5]LVIE[Nle]AL-NH2; staple 5-9) | + (<10: +) | > 30 | ++++ (≥30: ++++) | 200 to 400
CCCC[C@H](NC(=O)[C@H](CCC(=O)O)NC(=O)[C@@H](NC(=O)[C@@H](NC(=O)[C@H](CC(C)C)NC(=O)[C@]1(C)CCCC=CCCC[C@](C)(NC(=O)[C@H](C)NC(=O)[C@H](CC(=O)O)NC(=O)[C@@H](NC(=O)[C@H](Cc2ccccc2)NC(C)=O)[C@@H](C)CC)C(=O)N[C@@H]([C@@H](C)O)C(=O)N[C@@H](CC(C)C)C(=O)N[C@@H](CCCC)C(=O)N1)C(C)C)[C@@H](C)CC)C(=O)N[C@@H](C)C(=O)N[C@@H](CC(C)C)C(N)=O [SP-149] (Ac-FIDA[S5]TL[Nle][S5]LVIE[Nle]AL-NH2; staple 5-9) | ++++ (≥50: ++++) | 5 to 15 | + (<5: +) | 400 to 700
CCCC[C@H](NC(=O)[C@H](CC(C)C)NC(=O)[C@@H](NC(=O)[C@H](CCC(=O)O)NC(=O)[C@H](CCC(=O)O)NC(=O)[C@H](CC(=O)O)NC(=O)[C@@H](NC(=O)[C@H](CC(N)=O)NC(=O)[C@@H](NC(=O)[C@]1(C)CCCC=CCCCCCC[C@@](C)(NC(=O)[C@H](CCC(=O)O)NC(=O)CNC(=O)[C@H](CCC(N)=O)NC(=O)[C@H](CC(C)C)NC(=O)[C@H](CC(C)C)NC(C)=O)C(=O)N[C@@H](CC(C)C)C(=O)N[C@@H](CC(C)C)C(=O)N[C@@H](CCCNC(=N)N)C(=O)N[C@@H](C)C(=O)N[C@@H](CC(C)C)C(=O)N[C@@H](CC(=O)O)C(=O)N1)C(C)C)[C@@H](C)CC)C(C)C)C(=O)N[C@@]1(C)CCCC=CCCC[C@@](C)(C(=O)N[C@@H](CCCC)C(=O)NCC(N)=O)NC(=O)[C@H]([C@@H](C)CC)NC(=O)[C@H](C(C)C)NC(=O)[C@H](CC(C)C)NC1=O [SP-309] (Ac-LLQGE[R8]LLRALD[S5]VNIDEEVL[Nle][S5]LVI[S5][Nle]G-NH2; staple 6-13, 23-27) | + (<10: +) | > 30 | ++++ (≥30: ++++) | 200 to 400
CCCC[C@H](NC(=O)[C@H](CC(C)C)NC(=O)[C@@H](NC(=O)[C@H](CCC(=O)O)NC(=O)[C@H](CCC(=O)O)NC(=O)[C@H](CC(=O)O)NC(=O)[C@@H](NC(=O)[C@H](CC(N)=O)NC(=O)[C@@H](NC(=O)[C@]1(C)CCCC=CCCCCCC[C@@](C)(NC(=O)[C@H](CCC(=O)O)NC(=O)CNC(=O)[C@H](CCC(N)=O)NC(=O)[C@H](CC(C)C)NC(=O)[C@H](CC(C)C)NC(C)=O)C(=O)N[C@@H](CC(C)C)C(=O)N[C@@H](CC(C)C)C(=O)N[C@@H](CCCNC(=N)N)C(=O)N[C@@H](C)C(=O)N[C@@H](CC(C)C)C(=O)N[C@@H](CC(=O)O)C(=O)N1)C(C)C)[C@@H](C)CC)C(C)C)C(=O)N[C@@]1(C)CCCC=CCCC[C@@](C)(C(=O)N[C@@H](CCCC)C(=O)N[C@@H](C)C(=O)N[C@@H](CC(C)C)C(N)=O)NC(=O)[C@H]([C@@H](C)CC)NC(=O)[C@H](C(C)C)NC(=O)[C@H](CC(C)C)NC1=O [SP-372] (Ac-LLQGE[R8]LLRALD[S5]VNIDEEVL[Nle][S5]LVI[S5][Nle]AL-NH2; staple 6-13, 23-27) | ++++ (≥50: ++++) | > 30 | ++++ (≥30: ++++) | 400 to 700
CC[C@H](C)[C@H](NC(=O)[C@H](Cc1ccccc1)NC(C)=O)C(=O)N[C@@H](CC(=O)O)C(=O)N[C@@H](CCC(=O)O)C(=O)N[C@@]1(C)CCCC=CCCC[C@@](C)(C(=O)N[C@@H](CC(C)C)C(=O)N[C@H](C(=O)N[C@H](C(=O)N[C@@H](CCC(=O)O)C(=O)N[C@@H](CCSC)C(=O)N[C@@H](C)C(=O)N[C@@H](CC(C)C)C(=O)N[C@@H](CC(=O)O)C(=O)N[C@@H](CCCNC(=N)N)C(=O)N[C@H](C(=O)N[C@@H](CCCCN)C(=O)N[C@@H](CCC(=O)O)C(=O)N[C@@H](CC(C)C)C(=O)N2CCC[C@H]2C(=O)N[C@@H](CCC(=O)O)C(=O)N[C@@H](CC(C)C)C(=O)N[C@@H](Cc2c[nH]c3ccccc23)C(=O)N[C@@H](CC(C)C)C(N)=O)[C@@H](C)CC)[C@@H](C)CC)C(C)C)NC(=O)[C@H](C)NC(=O)[C@H](CC(C)C)NC(=O)[C@H](C(C)C)NC1=O [SP-112] (Ac-FIDE[S5]VLA[S5]LVIEMALDRIKELPELWL-NH2; staple 5-9) | +++ (≤25 but <50: +++) | 5 to 15 | ++++ (≥30: ++++) | ≤ 200
CCCC[C@H](NC(=O)[C@H](CC(C)C)NC(=O)[C@@H](NC(=O)[C@H](CCC(=O)O)NC(=O)[C@H](CCC(=O)O)NC(=O)[C@H](CC(=O)O)NC(=O)[C@@H](NC(=O)[C@H](CC(N)=O)NC(=O)[C@@H](NC(=O)[C@H](CCC(N)=O)NC(=O)[C@]1(C)CCCC=CCCCCCC[C@@](C)(NC(=O)CNC(=O)[C@H](CCC(N)=O)NC(=O)[C@H](CC(C)C)NC(=O)[C@H](CC(C)C)NC(C)=O)C(=O)N[C@@H](CCC(=O)O)C(=O)N[C@@H](CC(C)C)C(=O)N[C@@H](CC(C)C)C(=O)N[C@@H](CCCNC(=N)N)C(=O)N[C@@H](C)C(=O)N[C@@H](CC(C)C)C(=O)N1)C(C)C)[C@@H](C)CC)C(C)C)C(=O)N[C@@]1(C)CCCC=CCCC[C@@](C)(C(=O)N[C@@H](CCCC)C(=O)NCC(N)=O)NC(=O)[C@H]([C@@H](C)CC)NC(=O)[C@H](C(C)C)NC(=O)[C@H](CC(C)C)NC1=O [SP-342] (Ac-LLQG[R8]ELLRAL[S5]QVNIDEEVL[Nle][S5]LVI[S5][Nle]G-NH2; staple 5-12, 23-27) | +++ (≤25 but <50: +++) | > 30 | ++++ (≥30: ++++) | > 700
